Paper PMC10023679, “Amide-to-ester substitution as a stable alternative to N-methylation for increasing membrane permeability in cyclic peptides” (Nature Communications, 2023)
Where two headings read alike, the source gives them in different places. Non-standard residues stand in square brackets, D forms with d. Residues, ends and D or L forms follow the SMILES beside them. NMeY = CN[C@@H](Cc1ccc(O)cc1)C(=O)O; Hpla = O=C(O)[C@@H](O)Cc1ccc(O)cc1; Hica(2S) = CC(C)C[C@H](O)C(=O)O

How the values were obtained:
Mouse serum stability = type: in vitro ADME; conditions: mouse serum containing 1% DMSO, 37 °C; for Stability in mouse serum: up to 24 h
Description: Compounds were incubated in mouse serum containing 1% DMSO at 37 °C for 24 h in triplicate. At each time point, 20 μL of the solution was aliquoted and diluted four times using acetonitrile to precipitate serum proteins. After centrifugation, the supernatant was diluted with water and the concentration of the intact peptide was quantified by LC-MS. For other peptides, the amount of residual intact peptides was evaluated after incubation in mouse plasma at 37 °C for 30 min. The amount of intact peptides was determined by taking the ratio of the LC-MS peak area of intact peptides just before and after the incubation.

Solubility assay = type: physicochemical; conditions: phosphate buffer (pH 7.4) containing 1.2% DMSO, 37 °C, read-out: Water solubility
[1] = Stability in simulated intestinal fluid (SIF); type: in vitro ADME; conditions: SIF-containing pancreatin, pH 6.8, 37 °C, 1–4 h
Description: (§1) The stability assay of peptides in SIF was conducted according to United States Pharmacopeia & National Formulary (USP 25-NF 20)[64] and the previous report[65] with some modifications as follows. SIF used in this study was prepared by dissolving pancreatin (1.25 mg/mL) (Sigma, P7545, 8 × USP specifications) in 50 mM phosphate buffer at pH 6.8. The solution was vortexed for 1 min, sonicated for 15 min, centrifuged at 20,000 × g for 10 min, and filtered before use. 57 μL of SIF was incubated at 37 °C for 15 min and 3 μL of 1 μM peptide solution in DMSO was added to the warmed […]. After 1, 2, or 4 h, 60 μL of ice-cold ultra-pure water containing 5% trifluoroacetic acid was added and 120 μL of 30% acetonitrile in ultra-pure water was added. The samples were filtered and injected into UPLC.

[2] = Stability in simulated gastric fluid (SGF); type: in vitro ADME; conditions: SGF-containing pepsin, pH 1.2, 37 °C, 1–4 h
Description: as §1, with “SGF” for “SIF”, “pepsin (3.6” for “pancreatin (1.25”, “P7012, 3357 Unit/mg)” for “P7545, 8 × USP specifications)”, “an aqueous solution of 2 mg/mL sodium chloride (NaCl)” for “50 mM phosphate buffer”, “1.2.” for “6.8.”

[3] = 1,9-decadiene-water distribution coefficient; type: physicochemical; conditions: decadiene and aqueous buffer
in vitro = in vitro ADME; conditions: PAMPA
[4] = Caco-2 assay (permeability across cell monolayers); type: in vitro ADME; conditions: for Papp: Caco-2, 1 μM compounds in HBSS (pH 7.4) containing 10 mM HEPES and 1% DMSO, 3 h incubation at 37 °C, read-out: Caco-2 permeability Pa; for efflux ratio: read-out: Efflux ratio, Pe (basolateral-to-apical)/Pe (apical-to-basolateral)
Caco-2 cells = test: Caco-2 assay (permeability across cell monolayers); type: in vitro ADME; conditions: 55 μM

| Structure (SMILES) | Stability in mouse serum (Mouse serum stability) | solubility kinetic at 4 h (Solubility assay) | Degradation in SIF [1] | Degradation in SGF [2] | log Ddec/w (1,9-decadiene–water distribution coefficient) [3] | Time within which degraded in mouse serum (Mouse serum stability) | Papp (in vitro) | Papp [4] | efflux ratio ([4]; Caco-2, pH 7.4, Inhibitor (+): quinidine, sulfasalazine, benzbromarone, 2 h incubation) | efflux ratio ([4]; Caco-2, pH 7.4, Inhibitor (–), 1 μM, 2 h incubation) | Papp A→B ([4]; Caco-2, pH 7.4, Inhibitor (+): preincubated with 50 µM quinidine, 20 µM sulfasalazine, 30 µM benzbromarone, 2 h incubation, read-out: Pe (apical-to-basolateral)) | Papp B→A ([4]; Caco-2, pH 7.4, Inhibitor (+): preincubated with 50 µM quinidine, 20 µM sulfasalazine, 30 µM benzbromarone, 2 h incubation, read-out: Pe (basolateral-to-apical)) | Papp A→B at 2 h, 1 μM ([4]; human, Caco-2, pH 7.4, Inhibitor (–), 1 μM, 2 h incubation, read-out: Pe (apical-to-basolateral)) | Papp B→A at 2 h, 1 μM ([4]; human, Caco-2, pH 7.4, Inhibitor (–), 1 μM, 2 h incubation, read-out: Pe (basolateral-to-apical)) | Caco-2 permeability compared with CP1 at higher concentration (Caco-2 cells) |
| --- | --- | --- | --- | --- | --- | --- | --- | --- | --- | --- | --- | --- | --- | --- | --- |
| CC(C)C[C@@H]1NC(=O)[C@H](Cc2ccc(O)cc2)NC(=O)[C@H]2CCCN2C(=O)[C@H](CC(C)C)NC(=O)[C@H](CC(C)C)NC(=O)[C@@H](CC(C)C)NC1=O [CP1] (cyclo(LL[dP]YL[dL])) | stable | > 100 µM | no significant degradation | no significant degradation | −0.74 | – | – | – | – | – | – | – | – | – | – |
| CC(C)C[C@H](NC(=O)[C@H](CC(C)C)NC(=O)[C@@H](CC(C)C)NC(=O)[C@H](CC(C)C)NC(=O)[C@H](Cc1ccc(O)cc1)OC(=O)[C@H]1CCCN1)C(N)=O [DP1L-NH2] (H-[dP][Hpla]L[dL]LL-NH2) | – | – | – | – | – | ≤ 2 h | – | – | – | – | – | – | – | – | – |
| CC(C)C[C@@H]1NC(=O)[C@H](Cc2ccc(O)cc2)OC(=O)[C@H]2CCCN2C(=O)[C@H](CC(C)C)NC(=O)[C@H](CC(C)C)NC(=O)[C@@H](CC(C)C)NC1=O [DP1] (cyclo(LL[dP][Hpla]L[dL])) | stable | – | no significant degradation | no significant degradation | 1.2 | – | 2.9 ×10⁻⁶ cm/s | 2 ×10⁻⁶ cm/s | – | – | – | – | – | – | – |

More lines, main results first:

| Stability in mouse serum (Mouse serum stability) | solubility kinetic at 4 h (Solubility assay) | Degradation in SIF [1] | Degradation in SGF [2] | log Ddec/w (1,9-decadiene–water distribution coefficient) [3] | Time within which degraded in mouse serum (Mouse serum stability) | Papp (in vitro) | Papp [4] | efflux ratio ([4]; Caco-2, pH 7.4, Inhibitor (+): quinidine, sulfasalazine, benzbromarone, 2 h incubation) | efflux ratio ([4]; Caco-2, pH 7.4, Inhibitor (–), 1 μM, 2 h incubation) | Papp A→B ([4]; Caco-2, pH 7.4, Inhibitor (+): preincubated with 50 µM quinidine, 20 µM sulfasalazine, 30 µM benzbromarone, 2 h incubation, read-out: Pe (apical-to-basolateral)) | Papp B→A ([4]; Caco-2, pH 7.4, Inhibitor (+): preincubated with 50 µM quinidine, 20 µM sulfasalazine, 30 µM benzbromarone, 2 h incubation, read-out: Pe (basolateral-to-apical)) | Papp A→B at 2 h, 1 μM ([4]; human, Caco-2, pH 7.4, Inhibitor (–), 1 μM, 2 h incubation, read-out: Pe (apical-to-basolateral)) | Papp B→A at 2 h, 1 μM ([4]; human, Caco-2, pH 7.4, Inhibitor (–), 1 μM, 2 h incubation, read-out: Pe (basolateral-to-apical)) | Structure (SMILES) | Caco-2 permeability compared with CP1 at higher concentration (Caco-2 cells) |
| --- | --- | --- | --- | --- | --- | --- | --- | --- | --- | --- | --- | --- | --- | --- | --- |
| – | – | – | – | – | – | 2 ×10⁻⁶ cm/s | 0.9 ×10⁻⁶ cm/s | 1.05 | 27.2 | 14.6 ± 3.5 ×10⁻⁶ cm/s | 15.3 ± 1.1 ×10⁻⁶ cm/s | 1.5 ± 0.4 ×10⁻⁶ cm/s | 40.8 ± 11 ×10⁻⁶ cm/s | CC(C)C[C@@H]1NC(=O)[C@@H](CC(C)C)NC(=O)[C@H](CC(C)C)OC(=O)[C@H](Cc2ccc(O)cc2)NC(=O)[C@H]2CCCN2C(=O)[C@H](CC(C)C)NC1=O [DP2] (cyclo(LL[dP]Y[Hica(2S)][dL])) | significantly higher permeability than CP1 |
| stable | – | no significant degradation | no significant degradation | 0.052 | – | 1.7 ×10⁻⁶ cm/s | 0.6 ×10⁻⁶ cm/s | – | – | – | – | – | – | CC(C)C[C@@H]1NC(=O)[C@@H](CC(C)C)NC(=O)[C@H](CC(C)C)NC(=O)[C@H](Cc2ccc(O)cc2)N(C)C(=O)[C@H]2CCCN2C(=O)[C@H](CC(C)C)NC1=O [MP1] (cyclo(LL[dP][NMeY]L[dL])) | – |
